We go through three compounds from ChEMBL document CHEMBL4819053, “Alkyne-Bridged α-Conotoxin Vc1.1 Potently Reverses Mechanical Allodynia in Neuropathic Pain Models” (J Med Chem, 2021).

The target in test [1] is T1, GABA-B receptor (Homo sapiens) (UniProt Q9UBS5+O75899). The experiment in a line: Agonist activity at human GABAB expressed in HEK293T cells co-transfected with human CaV2.2-alpha2delta1 channel assessed as inhibition of CaV2.2-mediated Ba2+ peak-current amplitude at 100 nM at -80 to 10 mV holding potential after 72 hrs by whole cell patch clamp assay relative to control. The test is classed as cell-based. As to conditions: filed as agonist. (Patch clamp records ionic current or voltage across a cell membrane.)

The next test addresses GABA-B receptor (Homo sapiens, UniProt O75899+Q9UBS5). The experiment in a line: Agonist activity at human GABAB expressed in HEK293T cells co-transfected with human CaV2.2 channel assessed as inhibition of CaV2.2-mediated Ba2+ peak-current amplitude at -80 to 10 mV holding potential after 72 hrs by whole cell patch clamp assay. The test is classed as cell-based.
The target in test [2] is Neuronal acetylcholine receptor; alpha3/beta4 (Homo sapiens) (UniProt P30926+P32297). The experiment in a line: Antagonist activity at human alpha3beta4 nAChR expressed in Xenopus laevis oocytes assessed as inhibition of Ach-induced response at 1 to 30 uM incubated for 5 mins by two electrode voltage-clamp assay. The test is classed as cell-based. Particulars: Oocyte, filed as antagonist, dose 1-30 µM.

Test [3] concerns the target Nicotinic acetylcholine receptor alpha6/alpha3/beta4 (Homo sapiens) (UniProt P30926+P32297+Q15825). The experiment in a line: Antagonist activity at human alpha6/alpha3beta4 nAChR expressed in Xenopus laevis oocytes assessed as inhibition of Ach-induced response at 1 to 30 uM incubated for 5 mins by two electrode voltage-clamp assay. The test is classed as cell-based. Particulars: Oocyte, filed as antagonist, dose 1-30 µM.

Test [4] has as its target T1, GABA-B receptor (Homo sapiens). The test is described as follows: Agonist activity at human GABAB expressed in HEK293T cells co-transfected with human CaV2.2-beta3 channel assessed as inhibition of CaV2.2-mediated Ba2+ peak-current amplitude at 100 nM at -80 to 10 mV holding potential after 72 hrs by whole cell patch clamp assay relative to control. The test is classed as cell-based. Particulars: filed as agonist.

In test [5] the target is T2, Neuronal acetylcholine receptor; alpha9/alpha10 (Homo sapiens) (UniProt Q9UGM1+Q9GZZ6). The test is described as follows: Antagonist activity at human alpha9alpha10 nAChR expressed in Xenopus laevis oocytes assessed as inhibition of Ach-induced response incubated for 5 mins by two electrode voltage-clamp assay. It is filed as cell-based. As to conditions: Oocyte, filed as antagonist, dose 1-30 µM.

Test [6] has as its target T1, GABA-B receptor (Homo sapiens). The test is described as follows: Agonist activity at human GABAB expressed in HEK293T cells co-transfected with human CaV2.2-alpha1B channel assessed as inhibition of CaV2.2-mediated Ba2+ peak-current amplitude at 100 nM at -80 to 10 mV holding potential after 72 hrs by whole cell patch clamp assay relative to control. It is filed as cell-based. As to conditions: filed as agonist.

Test [7] concerns the target Neuronal acetylcholine receptor subunit alpha-7 (Homo sapiens) (UniProt P36544). The experiment in a line: Antagonist activity at human alpha7 nAChR expressed in Xenopus laevis oocytes assessed as inhibition of Ach-induced response incubated for 5 mins by two electrode voltage-clamp assay. The test is classed as cell-based. Particulars: Oocyte, dose 1-30 µM. In general terms: In two-electrode clamp one electrode senses voltage and the other passes current.

For test [8], the target named is T3, Neuronal acetylcholine receptor; alpha3/beta2 (Homo sapiens) (UniProt P17787+P32297). The test is described as follows: Antagonist activity at human alpha3beta2 nAChR expressed in Xenopus laevis oocytes assessed as inhibition of Ach-induced response incubated for 5 mins by two electrode voltage-clamp assay. Particulars: Oocyte, filed as antagonist, dose 1-30 µM. The test is classed as cell-based.

Test [9] has as its system Rattus norvegicus. The experiment in a line: Antiallodynic activity in Sprague-Dawley rat model of neuropathic mechanical allodynia assessed as increase in paw withdrawal threshold administered intramuscularly measured at 1 to 24 hrs post last dose by von Frey test. The test is classed as functional, organism-based. As to conditions: dose 0.03-0.1 mg/kg, time 1-24 hrs.

The target in test [10] is T3, Neuronal acetylcholine receptor; alpha3/beta2 (Homo sapiens). The test is described as follows: Antagonist activity at human alpha3beta2 nAChR expressed in Xenopus laevis oocytes assessed as inhibition of Ach-induced response at 30 uM incubated for 5 mins by two electrode voltage-clamp assay relative to control. The test is classed as cell-based. Particulars: Oocyte.

Test [11] relates to Rattus norvegicus. The test is described as follows: Antiallodynic activity in Sprague-Dawley rat model of neuropathic mechanical allodynia assessed as increase in paw withdrawal threshold at 0.1 mg/kg, IM measured at 4 hr post last dose by von Frey test. It is filed as functional.
The target in test [12] is T2, Neuronal acetylcholine receptor; alpha9/alpha10 (Homo sapiens). The experiment in a line: Antagonist activity at human alpha9/alpha10 nAChR expressed in Xenopus laevis oocytes assessed as inhibition of Ach-induced response at 30 uM incubated for 5 mins by two electrode voltage-clamp assay. It is filed as cell-based. As to conditions: Oocyte.
Test [13] relates to Rattus norvegicus. The experiment in a line: Antiallodynic activity in Sprague-Dawley rat model of neuropathic mechanical allodynia assessed as increase in paw withdrawal threshold at 0.1 mg/kg, IM measured at 2 hr post last dose by von Frey test. It is filed as functional.
The subject of test [14] is Rattus norvegicus. The experiment in a line: Antiallodynic activity in Sprague-Dawley rat model of neuropathic mechanical allodynia assessed as increase in paw withdrawal threshold at 0.1 mg/kg, IM measured at 24 hrs post last dose by von Frey test. The test is classed as functional.
Test [15] deals with Rattus norvegicus. The experiment in a line: Antiallodynic activity in Sprague-Dawley rat model of neuropathic mechanical allodynia assessed as increase in paw withdrawal threshold at 0.1 mg/kg, IM measured at 6 hr post last dose by von Frey test. The test is classed as functional.
In test [16] the test system is Rattus norvegicus. The test is described as follows: Antiallodynic activity in Sprague-Dawley rat model of neuropathic mechanical allodynia assessed as increase in paw withdrawal threshold at 0.1 mg/kg, IM measured at 1 hr post last dose by von Frey test. It is filed as functional.

pIC50: −log10 of the molar value. Activity calls are given as the source filed them.

Sequence of GABA-B receptor (Q9UBS5 whole entry): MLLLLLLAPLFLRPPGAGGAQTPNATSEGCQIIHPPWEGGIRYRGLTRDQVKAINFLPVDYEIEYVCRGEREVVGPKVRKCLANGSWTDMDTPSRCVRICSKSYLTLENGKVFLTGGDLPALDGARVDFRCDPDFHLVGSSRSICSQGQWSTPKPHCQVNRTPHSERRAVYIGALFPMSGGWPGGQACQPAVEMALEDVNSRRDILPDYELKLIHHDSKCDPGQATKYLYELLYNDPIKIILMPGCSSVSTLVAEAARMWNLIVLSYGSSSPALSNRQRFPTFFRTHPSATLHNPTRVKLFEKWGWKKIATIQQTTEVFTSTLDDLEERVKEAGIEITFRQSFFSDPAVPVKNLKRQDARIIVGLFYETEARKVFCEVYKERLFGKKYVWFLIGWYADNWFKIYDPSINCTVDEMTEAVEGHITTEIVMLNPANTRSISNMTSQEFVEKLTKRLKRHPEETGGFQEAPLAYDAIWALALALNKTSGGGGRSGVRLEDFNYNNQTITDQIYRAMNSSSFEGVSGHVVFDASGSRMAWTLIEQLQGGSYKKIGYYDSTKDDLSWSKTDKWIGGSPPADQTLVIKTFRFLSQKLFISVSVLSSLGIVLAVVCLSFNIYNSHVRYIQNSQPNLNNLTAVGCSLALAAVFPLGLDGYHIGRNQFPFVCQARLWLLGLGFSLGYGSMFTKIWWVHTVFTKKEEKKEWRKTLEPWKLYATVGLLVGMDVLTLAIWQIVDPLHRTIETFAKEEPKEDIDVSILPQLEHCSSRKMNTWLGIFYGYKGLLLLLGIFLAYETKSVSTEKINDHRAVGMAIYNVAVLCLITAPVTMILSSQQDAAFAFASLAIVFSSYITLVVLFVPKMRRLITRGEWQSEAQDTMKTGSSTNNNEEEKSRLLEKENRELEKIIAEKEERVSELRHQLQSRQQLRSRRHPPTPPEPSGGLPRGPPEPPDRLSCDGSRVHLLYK
Sequence of GABA-B receptor (O75899 whole entry): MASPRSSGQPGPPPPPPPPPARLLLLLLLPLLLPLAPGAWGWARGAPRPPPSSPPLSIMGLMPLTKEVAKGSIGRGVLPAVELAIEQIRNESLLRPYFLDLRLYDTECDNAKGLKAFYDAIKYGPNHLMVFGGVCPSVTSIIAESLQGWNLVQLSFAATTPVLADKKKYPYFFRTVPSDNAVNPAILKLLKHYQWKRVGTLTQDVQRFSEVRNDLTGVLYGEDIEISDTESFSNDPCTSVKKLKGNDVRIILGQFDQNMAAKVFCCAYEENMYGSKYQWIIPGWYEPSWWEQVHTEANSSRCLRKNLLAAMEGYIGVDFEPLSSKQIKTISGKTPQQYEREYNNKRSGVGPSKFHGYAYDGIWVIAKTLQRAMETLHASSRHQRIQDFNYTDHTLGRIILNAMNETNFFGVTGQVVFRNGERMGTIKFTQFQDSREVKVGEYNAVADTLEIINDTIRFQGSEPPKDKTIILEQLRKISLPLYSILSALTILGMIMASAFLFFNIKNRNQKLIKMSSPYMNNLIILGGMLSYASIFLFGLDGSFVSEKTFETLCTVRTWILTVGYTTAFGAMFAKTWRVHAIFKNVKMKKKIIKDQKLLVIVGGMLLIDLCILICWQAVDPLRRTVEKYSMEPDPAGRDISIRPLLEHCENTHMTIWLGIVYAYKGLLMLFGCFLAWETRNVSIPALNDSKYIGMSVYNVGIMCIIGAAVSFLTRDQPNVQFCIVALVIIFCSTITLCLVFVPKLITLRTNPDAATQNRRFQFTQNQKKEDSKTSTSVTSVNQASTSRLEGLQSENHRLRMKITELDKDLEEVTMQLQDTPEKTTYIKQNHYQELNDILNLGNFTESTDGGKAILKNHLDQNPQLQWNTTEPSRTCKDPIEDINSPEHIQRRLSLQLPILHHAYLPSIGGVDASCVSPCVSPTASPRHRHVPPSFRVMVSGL
Sequence of Neuronal acetylcholine receptor subunit alpha-7 (Homo sapiens) (P36544 whole entry): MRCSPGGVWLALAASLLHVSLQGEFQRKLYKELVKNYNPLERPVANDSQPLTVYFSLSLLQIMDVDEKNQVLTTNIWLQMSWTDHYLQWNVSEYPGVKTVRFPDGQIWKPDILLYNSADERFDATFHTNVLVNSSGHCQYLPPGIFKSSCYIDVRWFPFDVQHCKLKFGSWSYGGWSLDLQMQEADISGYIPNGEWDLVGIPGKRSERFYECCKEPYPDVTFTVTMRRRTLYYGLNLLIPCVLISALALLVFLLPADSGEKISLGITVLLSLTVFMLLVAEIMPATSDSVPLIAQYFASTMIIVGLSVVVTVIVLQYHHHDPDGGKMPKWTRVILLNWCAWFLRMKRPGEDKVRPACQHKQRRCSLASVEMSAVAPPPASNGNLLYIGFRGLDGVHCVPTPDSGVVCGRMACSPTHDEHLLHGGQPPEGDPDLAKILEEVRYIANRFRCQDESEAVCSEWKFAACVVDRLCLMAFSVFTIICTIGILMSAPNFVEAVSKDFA

For orientation: inhibition means the change of the read-out against control, counted positive when it falls. Broadly, the pIC50 is the negative decadic logarithm of the IC50, by convention in mol/L. With `CC[C@H](C)[C@@H]1NC(=O)[C@H](CCC(=O)O)NC(=O)[C@@H]2CCCN2C(=O)[C@H](Cc2cnc[nH]2)NC(=O)[C@H](CC(=O)O)NC(=O)[C@H](Cc2ccc(O)cc2)NC(=O)[C@H](CC(N)=O)NC(=O)[C@@H]2CSSC[C@H](NC(=O)[C@@H](NC(=O)CN)CSSC[C@@H](C(N)=O)NC1=O)C(=O)N[C@@H](CO)C(=O)N[C@@H](CC(=O)O)C(=O)N1CCC[C@H]1C(=O)N[C@@H](CCCNC(=N)N)C(=O)N2`, the inhibition in test [1] was 25%; in [4], 25%; in test [5], “Dose-Dependent Effect”; in [6], 25%; in test [7] (filed as antagonist), “Dose-Dependent Effect”; in test [8], “Dose-Dependent Effect”. Also, the pIC50 on GABA-B receptor is 7.68. The inhibition result in test [2] and in [3] was “Active” in each case.

Regarding `CC[C@H](C)[C@@H]1NC(=O)[C@H](CCC(=O)O)NC(=O)[C@@H]2CCCN2C(=O)[C@H](Cc2cnc[nH]2)NC(=O)[C@H](CC(=O)O)NC(=O)[C@H](Cc2ccc(O)cc2)NC(=O)[C@H](CC(N)=O)NC(=O)[C@@H]2CC#CC[C@@H](NC(=O)CN)C(=O)N[C@H](CSSC[C@@H](C(N)=O)NC1=O)C(=O)N[C@@H](CO)C(=O)N[C@@H](CC(=O)O)C(=O)N1CCC[C@H]1C(=O)N[C@@H](CCCNC(=N)N)C(=O)N2`, the inhibition in [1], in test [4] and in test [6] was 26% each time. Moreover, the pIC50 on GABA-B receptor was 7.89. In addition, the Activity result is “Dose-Dependent Effect” in the test on Rattus norvegicus [9]; 5.5 g in the test on Rattus norvegicus [11]; 5.5 g in the test with Rattus norvegicus [13]; 3.88 g with Rattus norvegicus [14]; 4.88 g with Rattus norvegicus [15]; 5.38 g with Rattus norvegicus [16]. The inhibition result in test [10], in test [12] and in [7] was “inactive” throughout.

Turning to `CC[C@H](C)[C@@H]1NC(=O)[C@H](CCC(=O)O)NC(=O)[C@@H]2CCCN2C(=O)[C@H](Cc2cnc[nH]2)NC(=O)[C@H](CC(=O)O)NC(=O)[C@H](Cc2ccc(O)cc2)NC(=O)[C@H](CC(N)=O)NC(=O)[C@@H]2CCCC[C@@H](NC(=O)CN)C(=O)N[C@H](CSSC[C@@H](C(N)=O)NC1=O)C(=O)N[C@@H](CO)C(=O)N[C@@H](CC(=O)O)C(=O)N1CCC[C@H]1C(=O)N[C@@H](CCCNC(=N)N)C(=O)N2`, the inhibition in test [1] is 0.06%; in test [10] (filed as antagonist), over 90%; in test [4], 0.06%; in [6], 0.06%.
